# Test results reported in patent US20250228835A1, “PYRIDINYLOXYPYRIDINES AND RELATED COMPOUNDS AND THEIR USE IN TREATING MEDICAL CONDITIONS” (Rectify Pharmaceuticals, Inc., priority 2024, published 2025).
# Biological target: T1, ABCD2 WT (Homo sapiens, UniProt Q9UBJ2)
# T1 construct: expressed in transfected cells
# T1 sequence (Q9UBJ2 1-740): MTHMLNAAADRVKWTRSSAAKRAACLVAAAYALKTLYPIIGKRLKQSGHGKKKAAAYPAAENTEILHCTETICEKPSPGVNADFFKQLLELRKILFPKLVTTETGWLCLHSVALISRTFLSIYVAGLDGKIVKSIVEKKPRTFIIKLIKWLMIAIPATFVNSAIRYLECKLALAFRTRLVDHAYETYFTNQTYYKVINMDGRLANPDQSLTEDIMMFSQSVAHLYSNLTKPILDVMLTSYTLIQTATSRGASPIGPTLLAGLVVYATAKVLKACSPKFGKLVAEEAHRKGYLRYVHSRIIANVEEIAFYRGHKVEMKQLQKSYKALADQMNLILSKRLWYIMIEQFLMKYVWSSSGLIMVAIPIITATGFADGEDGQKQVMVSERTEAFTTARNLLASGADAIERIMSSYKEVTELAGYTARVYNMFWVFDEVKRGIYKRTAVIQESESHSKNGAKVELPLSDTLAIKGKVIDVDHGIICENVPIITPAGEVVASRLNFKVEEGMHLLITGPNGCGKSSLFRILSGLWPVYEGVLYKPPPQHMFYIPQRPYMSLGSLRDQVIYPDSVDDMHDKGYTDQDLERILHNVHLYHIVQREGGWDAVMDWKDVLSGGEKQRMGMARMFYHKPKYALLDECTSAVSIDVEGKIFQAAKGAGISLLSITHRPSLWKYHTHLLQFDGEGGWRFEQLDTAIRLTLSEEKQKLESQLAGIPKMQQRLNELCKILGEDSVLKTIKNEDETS
# Assay: D2 correction dose-response assay: ABCD2 WT HiBit protein expression
# Type: cell-based
# Details: HEK-293/ABCD2 WT cells, 24 hours treatment, HiBit luminescence; class combines EC50 and Mean MaxAct (fold); read-out: ABCD2 WT EC50, Emax
# How it was run: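 HEK-293 cells stably expressing HiBit-tagged human ABCD2 WT were treated with 11 doses (3-fold dilutions, top final 30 μM, 0.3% DMSO) for 24 h at 37 °C. Expression was measured by HiBit lytic luminescence after 1 h at 25 °C, giving EC50 and Emax.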
row,EC50 [µM],Structure (SMILES)
1,10 to 25,Cc1cc(C)c(Oc2[nH]c(-c3cncc(C#N)c3)cc(=O)c2NS(C)(=O)=O)c(C)n1 [Compound I-325]
2,1 to 10,Cc1cc(C)c(Oc2nc(-c3cncc(S(C)(=O)=O)c3)ccc2NS(C)(=O)=O)c(C)c1 [Compound I-278]
3,1 to 10,Cc1cc(C)c(Oc2nc(-c3cncc(C#N)c3)ccc2S(C)(=N)=O)c(C)n1 (stereo not shown) [Compound I-249]
4,> 25,Cc1cc(C2CC2)nc(C2CC2)c1Oc1nc(-c2cncc(C#N)c2)ccc1S(=O)(=O)NC1CCOCC1 [Compound I-322]
5,> 25,Cc1cc(C)c(Oc2nc(-n3cnc(C#N)c3)ccc2N(C)S(C)(=O)=O)c(C)c1 [Compound I-272]
6,< 1,Cc1cc(C)c(Oc2nc(-c3cncc(C#N)c3)ncc2NS(C)(=O)=O)c(C)n1 [Compound I-284]
7,1 to 10,Cc1cc(C)c(Oc2nc(-c3cc(Cl)cnc3C)ccc2NS(C)(=O)=O)c(C)n1 [Compound I-282]
8,10 to 25,Cc1cc(C)c(Oc2nc(N3CCN(C(=O)C4CC4)CC3)ccc2NS(C)(=O)=O)c(C2CC2)n1 [Compound I-20]
9,> 25,Cc1cc(C(F)F)nc(C2CC2)c1Oc1nc(-c2cncc(C#N)c2)ccc1S(=O)(=O)NC1CCOCC1 [Compound I-320]
10,> 25,CNC(=O)N1CCN(c2ccc(NS(C)(=O)=O)c(Oc3c(C)cc(C)cc3C)n2)CC1 [Compound I-27]
11,< 1,Cc1cc(C(F)(F)F)nc(C)c1Oc1nc(-c2cncc(C#N)c2)ccc1NS(C)(=O)=O [Compound I-240]
12,1 to 10,Cc1cc(C2CC2)nc(C)c1Oc1nc(-c2cncc(C#N)c2)ccc1NS(=O)(=O)C1CCC1 [Compound I-252]
13,< 1,CNS(=O)(=O)c1ccc(-c2cncc(C#N)c2)nc1Oc1c(C)cc(C)cc1C [Compound I-281]
14,10 to 25,Cc1cc(C)c(Oc2nc(N3CCN(C(=O)N(C)C)CC3)ccc2NS(C)(=O)=O)c(C)c1 [Compound I-33]
15,1 to 10,"Cc1cc(C)c(Oc2nc(N3CCC(C#N)C3)ccc2NS(C)(=O)=O)c(C)c1 (single isomer, unassigned) [Compound I-261]"
16,> 25,Cc1cc(C)c(Oc2nc(-c3cncc(C#N)c3)ccc2NS(C)(=O)=O)c(C2CC2)n1 [Compound I-268]
